# According to patent publication US20210198277A1, “AMINE-SUBSTITUTED ARYL OR HETEROARYL COMPOUNDS” (Epizyme, Inc., priority 2016, published 2021):
# Where two headings read alike, the source gives them in different places.
# Experiments:
# human EHMT2 913-1193 = biological target: T1, human EHMT2 913-1193 (Homo sapiens, UniProt Q96KQ7); assay: EHMT2 enzyme assay on histone peptide substrate (EHMT2 PEP); type: biochemical; conditions: read-out: EHMT2 PEP IC50
# T1 construct: recombinant purified human EHMT2 913-1193, Viva; purchased Viva
# T1 sequence (Q96KQ7 913-1193): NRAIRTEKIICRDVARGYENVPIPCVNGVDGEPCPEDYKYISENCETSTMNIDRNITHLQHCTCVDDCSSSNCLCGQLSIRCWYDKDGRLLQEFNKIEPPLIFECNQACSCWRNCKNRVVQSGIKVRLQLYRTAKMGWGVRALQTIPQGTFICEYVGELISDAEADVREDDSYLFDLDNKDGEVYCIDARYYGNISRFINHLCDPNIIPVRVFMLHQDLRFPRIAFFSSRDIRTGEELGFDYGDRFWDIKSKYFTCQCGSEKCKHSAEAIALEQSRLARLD
# Procedure, shortened: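 10-pt 3-fold series, 50 μM top final, 2% DMSO; 30 min preinc w/ 0.031 nM enzyme; pH 7.5 Bicine/TCEP buffer; ^3H-SAM + biotin-histone peptide, 60 min RT; SAM quench; streptavidin Flashplate capture, TopCount.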
# EHMT1 = biological target: T2, EHMT1 (Homo sapiens, UniProt Q9H9B1); assay: EHMT1 enzyme assay on peptide substrate (EHMT1 PEP); type: biochemical; conditions: read-out: EHMT1 PEP IC50
# T2 sequence (Q9H9B1 1-1298): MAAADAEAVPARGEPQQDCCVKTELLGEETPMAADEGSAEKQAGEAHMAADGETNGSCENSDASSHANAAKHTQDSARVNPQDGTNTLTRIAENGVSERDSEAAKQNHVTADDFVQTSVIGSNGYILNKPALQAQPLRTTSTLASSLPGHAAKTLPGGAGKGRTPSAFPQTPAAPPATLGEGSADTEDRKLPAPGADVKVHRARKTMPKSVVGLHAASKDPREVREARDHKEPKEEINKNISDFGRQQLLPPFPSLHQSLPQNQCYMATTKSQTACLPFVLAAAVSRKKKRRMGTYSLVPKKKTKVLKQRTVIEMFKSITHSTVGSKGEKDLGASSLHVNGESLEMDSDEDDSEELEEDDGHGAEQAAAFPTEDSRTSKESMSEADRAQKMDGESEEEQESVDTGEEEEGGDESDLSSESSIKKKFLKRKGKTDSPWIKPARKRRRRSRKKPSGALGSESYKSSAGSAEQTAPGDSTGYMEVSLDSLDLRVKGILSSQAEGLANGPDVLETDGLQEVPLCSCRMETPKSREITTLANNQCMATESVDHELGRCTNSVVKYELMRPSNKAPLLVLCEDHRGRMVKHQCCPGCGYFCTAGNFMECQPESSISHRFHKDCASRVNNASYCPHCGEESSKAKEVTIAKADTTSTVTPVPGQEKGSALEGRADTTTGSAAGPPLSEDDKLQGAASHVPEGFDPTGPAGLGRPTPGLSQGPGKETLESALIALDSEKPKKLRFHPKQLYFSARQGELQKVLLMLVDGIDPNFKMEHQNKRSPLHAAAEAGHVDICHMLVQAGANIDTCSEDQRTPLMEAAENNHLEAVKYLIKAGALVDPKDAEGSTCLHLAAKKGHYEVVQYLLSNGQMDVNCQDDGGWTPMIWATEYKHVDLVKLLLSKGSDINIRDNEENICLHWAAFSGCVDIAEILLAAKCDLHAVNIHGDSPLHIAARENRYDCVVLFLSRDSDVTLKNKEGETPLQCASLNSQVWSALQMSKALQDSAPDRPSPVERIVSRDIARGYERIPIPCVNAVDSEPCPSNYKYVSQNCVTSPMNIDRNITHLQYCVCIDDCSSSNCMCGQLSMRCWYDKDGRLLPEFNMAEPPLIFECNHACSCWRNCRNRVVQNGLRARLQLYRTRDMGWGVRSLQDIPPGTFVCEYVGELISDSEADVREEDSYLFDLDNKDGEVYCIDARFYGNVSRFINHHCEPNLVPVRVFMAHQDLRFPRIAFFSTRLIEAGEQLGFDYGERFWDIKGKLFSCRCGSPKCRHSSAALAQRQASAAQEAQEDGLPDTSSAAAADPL
Structure (SMILES),IC50 (human EHMT2 913-1193; Table VI),IC50 (EHMT1; Table VI),IC50 (human EHMT2 913-1193; Table VII),IC50 (EHMT1; Table VII)
CNc1cc2sccc2c(Nc2cc(OCCCN3CCCC3)c(OC)cn2)n1 [Compound 609],100 to 1000 nM,100 to 1000 nM,,
CNc1cc(C)nc(Nc2ccc(OC)c(OC[C@H]3CCN(C(C)(C)C)C3)c2)n1 [Compound 610],> 10000 nM,> 10000 nM,,
CNc1nc(C2CCCCN2C)c2cc(OC)c(OCCCN3CCCC3)cc2n1 (stereo not shown) [Compound 747],100 to 1000 nM,100 to 1000 nM,,
CNc1nc(C2CCN(C)C2)c2cc(OC)c(OCCCN3CCCC3)cc2n1 (stereo not shown) [Compound 748],100 to 1000 nM,100 to 1000 nM,,
CNc1nc(C2CN(C)C2)c2cc(OC)c(OCCCN3CCCC3)cc2n1 [Compound 753],< 100 nM,< 100 nM,,
COc1cc2c(C3CN(C)C3)nc(C)nc2cc1OCCCN1CCCC1 [Compound 754],1000 to 10000 nM,1000 to 10000 nM,,
COc1cc2c(C3CCN(C4CCOCC4)CC3)cc(C)nc2cc1OCCCN1CCCC1 [Compound 755],< 100 nM,< 100 nM,,
COc1cc2c(C3CCN(C4CCOC4)CC3)cc(C)nc2cc1OCCCN1CCCC1 (stereo not shown) [Compound 756],< 100 nM,< 100 nM,,
CNc1cc(C2CCN(C3CCOCC3)CC2)c2cc(OC)c(OCCCN3CCCC3)cc2n1 [Compound 757],< 100 nM,< 100 nM,,
CNc1cc(C2CCN(C3CCOC3)CC2)c2cc(OC)c(OCCCN3CCCC3)cc2n1 (stereo not shown) [Compound 758],< 100 nM,< 100 nM,,
CNc1nc(C2CCN(C3CCOC3)CC2)c2cc(OC)c(OCCCN3CCCC3)cc2n1 (stereo not shown) [Compound 759],< 100 nM,< 100 nM,,
COc1cc2c(C3CCN(C4CCOC4)CC3)nc(C)nc2cc1OCCCN1CCCC1 (stereo not shown) [Compound 760],1000 to 10000 nM,1000 to 10000 nM,,
COc1cc2c(C)cc(N3CCOCC3)nc2cc1OCCCN1CCCC1 [Compound 761],1000 to 10000 nM,1000 to 10000 nM,,
COc1cc2c(C)nc(N3CCOCC3)nc2cc1OCCCN1CCCC1 [Compound 762],> 10000 nM,> 10000 nM,,
COc1cc2c(C#CCN3CCOCC3)cc(C)nc2cc1OCCCN1CCCC1 [Compound 763],> 10000 nM,> 10000 nM,,
CNc1cc(C#CCN2CCOCC2)cc2cc(OCCCN3CCCC3)c(OC)cc12 [Compound 784],1000 to 10000 nM,1000 to 10000 nM,,
COc1ccc(Nc2nc(C)cc(NC3CCCN(C)C3)n2)cc1OCCCN1CCCC1 (stereo not shown) [Compound 787],< 100 nM,< 100 nM,,
COc1ccc(Nc2nc(C)cc(NC3CCCOC3)n2)cc1OCCCN1CCCC1 (stereo not shown) [Compound 788],100 to 1000 nM,< 100 nM,,
COc1ccc(Nc2nc(C)cc(NC3CCOC3)n2)cc1OCCCN1CCCC1 (stereo not shown) [Compound 789],< 100 nM,< 100 nM,,
CNc1cc2cc(OCCCN3CCCC3)c(OC)cc2cc1Cl [Compound 1043],,,1000 to 10000 nM,100 to 1000 nM
CNc1cc(C2CCOCC2)c2cc(OC)c(C#CCN3CCCC3)cc2n1 [Compound 1049],,,100 to 1000 nM,< 100 nM
CNc1ccnc(Nc2ccc(OC)c(OC[C@@H]3CCN(C4CC4)C3)c2)n1 [Compound 1056],,,100 to 1000 nM,< 100 nM
CNCC(C)(O)COc1cc(Nc2nccc(OC)n2)ccc1OC (stereo not shown) [Compound 1058],,,> 10000 nM,> 10000 nM
CNc1ccnc(Nc2ccc(OC)c(ONC[C@@H]3CCCN3)c2)n1 [Compound 1061],,,1000 to 10000 nM,100 to 1000 nM
CNc1ccnc(Nc2ccc(OC)c(CNC[C@H]3CCCN3)c2)n1 [Compound 1062],,,1000 to 10000 nM,1000 to 10000 nM
CNc1cc(C)nc(Nc2cnc(OC)c(CNCCN3CCCC3)c2)n1 [Compound 1063],,,100 to 1000 nM,100 to 1000 nM
CNc1ccnc(Nc2ccc(OC)c(OC[C@H]3CN(C)CCO3)c2)n1 [Compound 1067],,,> 10000 nM,> 10000 nM
CNc1ccnc(Nc2ccc(OC)c(OC[C@H]3CNCCO3)c2)n1 [Compound 1069],,,> 10000 nM,1000 to 10000 nM
CNc1ccnc(Nc2ccc(OC)c(OC[C@@H]3CN(C)CCO3)c2)n1 [Compound 1070],,,> 10000 nM,> 10000 nM

# Other lines, results leading:
IC50 (human EHMT2 913-1193; Table VI),IC50 (EHMT1; Table VI),IC50 (human EHMT2 913-1193; Table VII),IC50 (EHMT1; Table VII),Structure (SMILES)
,,< 100 nM,< 100 nM,CNc1ccnc(Nc2ccc(OC)c(OC[C@H](O)CN3CCC3)c2)n1 [Compound 1047]
,,100 to 1000 nM,< 100 nM,CNc1ccnc(Nc2cnc(OC)c(OCCCN3CCCC3)c2)n1 [Compound 1048]
,,100 to 1000 nM,< 100 nM,CNc1ccnc(Nc2cnc(OC)c(OCCCN3CCC3)c2)n1 [Compound 1050]
,,< 100 nM,< 100 nM,CNc1ccnc(Nc2cnc(OC)c(OC[C@@H]3CCN(C4CC4)C3)c2)n1 [Compound 1051]
,,100 to 1000 nM,100 to 1000 nM,CNCCCOc1cc(Nc2nccc(NC)n2)ccc1OC [Compound 1052]
,,1000 to 10000 nM,100 to 1000 nM,CNCCCOc1cc(Nc2nccc(NC)n2)cnc1OC [Compound 1053]
,,1000 to 10000 nM,100 to 1000 nM,CNC[C@@H](O)COc1cc(Nc2nccc(NC)n2)ccc1OC [Compound 1054]
,,100 to 1000 nM,< 100 nM,CCN1CC[C@@H](COc2cc(Nc3nccc(NC)n3)ccc2OC)C1 [Compound 1055]
,,100 to 1000 nM,100 to 1000 nM,CNc1ccnc(Nc2ccc(OC)c(OCC(C)(O)CN3CCC3)c2)n1 (stereo not shown) [Compound 1057]
,,1000 to 10000 nM,100 to 1000 nM,CNc1ccnc(Nc2ccc(OC)c(OCCC(C)N3CCC3)c2)n1 (stereo not shown) [Compound 1060]
,,< 100 nM,< 100 nM,CNc1ccnc(Nc2cnc(OC)c(ONCCN3CCCC3)c2)n1 [Compound 1064]
,,100 to 1000 nM,< 100 nM,CNc1ccnc(Nc2cnc(OC)c(OC[C@@H]3CCN(C)C3)c2)n1 [Compound 1065]
,,1000 to 10000 nM,1000 to 10000 nM,CNC[C@H](COc1cc(Nc2nccc(NC)n2)ccc1OC)OC [Compound 1066]
,,> 10000 nM,> 10000 nM,CCN1CCO[C@@H](COc2cc(Nc3nccc(NC)n3)ccc2OC)C1 [Compound 1068]
,,> 10000 nM,> 10000 nM,CCN1CCO[C@H](COc2cc(Nc3nccc(NC)n3)ccc2OC)C1 [Compound 1071]
